Measured values: patent publication EP4512806A1, “MOLECULAR GLUE DEGRADERS AND USES THEREOF” (Mablink Bioscience, priority 2023, dated 2025)

What was measured:
[1] = tested on: 340 protein kinases; assay: Kinase screening assay (radiometric 33PanQinase ActivityAssay); type: biochemical, human; conditions: final compound concentration of 10 µM; most inhibited kinases belong to CMGC family, particularly CDK; 23 out of the 30 most inhibited were CDK/Cyclin complexes
Protocol: Compound 2384 according to the disclosure was subjected to kinase screening assays (performed at Reaction Biology, Germany). The screening assay was performed at a final compound concentration of 10 µM. A radiometric protein kinase assay (33PanQinase® ActivityAssay) was used for measuring the kinase activity of 340 protein kinases. All kinase assays were performed in 96-well FlashPlates™ from Perkin Elmer (Boston, MA, USA) in a 50 µL reaction volume. […] All PKC assays (except the PKC-mu and the PKC-nu assay) additionally contained 1 mM CaCl2, 4 mM EDTA, 5 µg/ml Phosphatidylserine and 1 µg/ml 1,2-Dioleyl-glycerol. The CAMK1D, CAMK2A, CAMK2B, CAMK2D, CAMK2G, CAMK4, CAMKK1, CAMKK2, DAPK2, EEF2K, MYLK, MYLK2 and MYLK3 assays additionally contained 1 µg/ml Calmodulin and 0.5 mM CaCl2. The PRKG1 and PRKG2 assays additionally contained 1 µM cGMP. The DNA-PK assay additionally contained 2.5 µg/ml DNA. The protein kinase reaction cocktails were incubated at 30°C for 60 minutes. The reaction was stopped with 50 µl of 2 % (v/v) H3PO4, plates were aspirated and washed two times with 200 µL 0.9 % (w/v) NaCl. Incorporation of 33Pi (counting of "cpm") was determined with a microplate scintillation counter (Microbeta, Wallac). All protein kinase assays were performed with a BeckmanCoulter Biomek 2000/SL robotic system. […]

[2] = In vivo mice tolerability assessment; conditions: female CD-1 mice, single intravenous 1mg/kg dose, Mean
Protocol: All animal procedures were performed in accordance with the European Union directive 86/609/EEC. Experiments were performed under individual permit and in accredited animal care facilities.
Mouse tolerability experiments were performed with selected compounds of the disclosure. Female CD-1 mice (n=5 mice per group) were treated with a single intravenous 1mg/kg dose of compound. Vehicle was PBS pH 6.0. Mice were carefully monitored for mortality, external clinical findings, weight loss, behavior and apparent signs of toxicity over the course of 21 days.

## N[C@H]1CC[C@H](Nc2nc(NCc3ccc(-c4ccccn4)cc3)n3ncc(Br)c3n2)CC1 [Compound 2384]
[1]
  inhibition of most inhibited kinases: more than 90%
[2]; Study Day 1
  average weight change (% initial weight): 0.0 % initial weight
[2]; Study Day 2
  average weight change (% initial weight): -2.5 % initial weight
[2]; Study Day 3
  average weight change (% initial weight): -7.1 % initial weight
[2]; Study Day 4
  average weight change (% initial weight): -14.6 % initial weight
[2]; Study Day 5
  average weight change (% initial weight): -15.2 % initial weight
[2]; Study Day 6
  average weight change (% initial weight): -14.9 % initial weight
[2]; Study Day 7
  average weight change (% initial weight): -12.4 % initial weight
[2]; Study Day 8
  average weight change (% initial weight): -9.2 % initial weight
[2]; Study Day 9
  average weight change (% initial weight): -7.3 % initial weight
[2]; Study Day 10
  average weight change (% initial weight): -1.9 % initial weight
[2]; Study Day 11
  average weight change (% initial weight): -0.7 % initial weight
[2]; Study Day 12
  average weight change (% initial weight): 4.1 % initial weight
[2]; Study Day 13
  average weight change (% initial weight): 1.9 % initial weight
[2]; Study Day 14
  average weight change (% initial weight): -1.8 % initial weight
[2]; Study Day 15
  average weight change (% initial weight): -3.4 % initial weight
[2]; Study Day 16
  average weight change (% initial weight): -4.1 % initial weight
[2]; Study Day 17
  average weight change (% initial weight): -1.6 % initial weight
[2]; Study Day 18
  average weight change (% initial weight): -0.5 % initial weight
[2]; Study Day 19
  average weight change (% initial weight): 0.7 % initial weight
[2]; Study Day 20
  average weight change (% initial weight): 2.6 % initial weight
[2]; Study Day 21
  average weight change (% initial weight): 2.0 % initial weight
